The subject of experiment [1] is OCI-Ly10 human DLBCL cells. Put plainly: OCI-Ly10 anti-proliferative activity (Resazurin, 72 h). The experiment is classed as cell-based. The settings on record: read-out: Proliferation OCI-Ly10-IC50. The protocol: Compounds were assayed for effects on the growth of OCI-Ly10 human DLBCL cells that are dependent on NFκB signalling. OCI-Ly10 cells were grown in suspension in T225 flasks, centrifuged and re-suspended in 2.5% FBS containing media. Cells were then plated at 7.5×10^3 cells per well in 96-well plates in varying concentrations of compound and incubated for 72 h at 37° C. An additional plate of cells to be used as the Day 0 read was seeded without compound addition, Resazurin was added to each well, incubated for 5 h and the fluorescence measured at 590 nm. After 72 h of compound treatment, Resazurin was added to each well of the compound treated plates, incubated for 5 h and the fluorescence measured at 590 nm. The IC50 was then calculated by subtracting the average Day 0 value from each well value from the treated plates, each treatment was then calculated as a percentage of the DMSO control and the percentages plotted against the inhibitor concentration to estimate the IC50 from log [Inhibitor] vs response using the Variable Slope model in Graphpad prism from Graphpad software (SanDiego, Calif.).

The target in experiment [2] is BTK^WT (Homo sapiens (Human), UniProt Q06187). Briefly: BTK^WT binding affinity (TR-FRET, LanthaScreen). Here is the method:
BTK^WT binding affinity of each compound tested was determined using a time-resolved fluorescence resonance energy transfer (TR-FRET) methodology. 2.5 nM Recombinant BTK^WT kinase, varying concentrations of inhibitor, 2 nM LanthaScreen™ Eu anti-His Antibody and 15 nM Kinase Tracer 236 was incubated in 1× LanthaScreen™ Kinase Buffer A for 5 h. Recombinant BTK kinase and all LanthaScreen™ components were purchased from Invitrogen. Measurements were performed in a reaction volume of 30 μL using half-area 96-well assay plates. The TR-FRET signal was read on a plate reader with an excitation wavelength of 340 nm and detection wavelengths of 615 and 665 nm. Binding affinity was determined for each compound by measuring TR-FRET signal at various concentrations of compound and plotting the relative fluorescence units against the inhibitor concentration to estimate the IC50 from log [Inhibitor] vs response using the Variable Slope model in Graphpad prism from Graphpad software (SanDiego, Calif.).
In general terms: In TR-FRET formats the signal depends on donor and acceptor labels being close together.

Experiment [3] concerns the target BTK^C481S (Homo sapiens (Human), UniProt Q06187, C481S). Put plainly: BTK^C481S binding affinity (TR-FRET, LanthaScreen). The following applies: 5 h incubation. The protocol:
BTK^C481S binding affinity of each compound tested was determined using a time-resolved fluorescence resonance energy transfer (TR-FRET) methodology. 5 nM Recombinant […] kinase, varying concentrations of inhibitor, 2 nM LanthaScreen™ Eu anti-His Antibody and 30 nM Kinase Tracer 236 was incubated in 1× LanthaScreen™ Kinase Buffer A for 5 h. Recombinant BTK^C481S kinase was purchased from SignalChem and all LanthaScreen™ components were purchased from Invitrogen. Measurements were performed in a reaction volume of 30 μL using half-area 96-well assay plates. The TR-FRET signal was read on a plate reader with an excitation wavelength of 340 nm and detection wavelengths of 615 and 665 nm. Binding affinity was determined for each compound by measuring TR-FRET signal at various concentrations of compound and plotting the relative fluorescence units against the inhibitor concentration to estimate the IC50 from log [Inhibitor] vs response using the Variable Slope model in Graphpad prism from Graphpad software (SanDiego, Calif.).

Experiment [4] deals with EGFR (Homo sapiens (Human), UniProt P00533). Put plainly: EGFR binding affinity (TR-FRET, LanthaScreen). The settings on record: 5 h incubation. The protocol:
EGFR binding affinity was determined using a time-resolved fluorescence resonance energy transfer (TR-FRET) methodology. 2.5 nM Recombinant EGFR, varying concentrations of inhibitor, 2 nM LanthaScreen™ Eu anti-GST Antibody and 3 nM Kinase Tracer 199 was incubated in 1× LanthaScreen™ Kinase Buffer A for 5 h. Recombinant EGFR and all LanthaScreen™ components were purchased from Invitrogen. Measurements were performed in a reaction volume of 30 μL using half-area 96-well assay plates. The TR-FRET signal was read on a plate reader with an excitation wavelength of 340 nm and detection wavelengths of 615 and 665 nm. Binding affinity was determined for each compound by measuring TR-FRET signal at various concentrations of compound and plotting the relative fluorescence units against the inhibitor concentration to estimate the IC50 from log [Inhibitor] vs response using the Variable Slope model in Graphpad prism from Graphpad software (SanDiego, Calif.).

The mark [5] stands for this setting: TR-FRET binding, 5 h incubation, read-out: BTK^WT IC50.

Where two headings read alike, the source gives them in different places.

Sequence of EGFR (P00533 25-1210): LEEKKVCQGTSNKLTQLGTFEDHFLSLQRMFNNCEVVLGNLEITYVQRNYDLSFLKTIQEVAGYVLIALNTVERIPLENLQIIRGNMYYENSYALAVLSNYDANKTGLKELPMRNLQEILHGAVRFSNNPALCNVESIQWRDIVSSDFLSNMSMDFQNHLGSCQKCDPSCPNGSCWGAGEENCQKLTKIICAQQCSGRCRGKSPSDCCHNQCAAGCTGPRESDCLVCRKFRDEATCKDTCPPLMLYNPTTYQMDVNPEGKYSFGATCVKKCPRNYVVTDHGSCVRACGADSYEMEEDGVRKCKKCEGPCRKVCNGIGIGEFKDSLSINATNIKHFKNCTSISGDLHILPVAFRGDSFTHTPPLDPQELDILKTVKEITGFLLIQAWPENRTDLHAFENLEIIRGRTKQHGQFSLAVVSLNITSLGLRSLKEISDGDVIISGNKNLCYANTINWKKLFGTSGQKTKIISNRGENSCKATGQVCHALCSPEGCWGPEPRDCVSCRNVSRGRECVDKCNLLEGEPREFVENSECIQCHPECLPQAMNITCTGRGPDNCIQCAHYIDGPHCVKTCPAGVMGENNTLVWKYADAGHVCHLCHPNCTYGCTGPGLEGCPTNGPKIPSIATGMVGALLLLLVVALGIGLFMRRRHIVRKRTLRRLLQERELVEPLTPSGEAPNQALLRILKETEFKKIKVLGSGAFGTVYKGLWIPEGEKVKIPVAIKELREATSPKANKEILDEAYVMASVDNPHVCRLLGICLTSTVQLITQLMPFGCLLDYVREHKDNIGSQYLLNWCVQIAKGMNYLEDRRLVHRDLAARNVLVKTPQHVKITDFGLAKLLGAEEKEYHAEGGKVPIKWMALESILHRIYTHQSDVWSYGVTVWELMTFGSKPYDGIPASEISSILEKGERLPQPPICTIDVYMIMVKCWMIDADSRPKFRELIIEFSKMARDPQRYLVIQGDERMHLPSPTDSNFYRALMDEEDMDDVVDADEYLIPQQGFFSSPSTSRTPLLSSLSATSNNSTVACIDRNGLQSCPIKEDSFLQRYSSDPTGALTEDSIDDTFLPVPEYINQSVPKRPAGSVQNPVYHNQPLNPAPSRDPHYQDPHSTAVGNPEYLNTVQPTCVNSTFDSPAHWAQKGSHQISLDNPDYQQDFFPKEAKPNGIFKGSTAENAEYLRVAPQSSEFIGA
Sequence of BTK^C481S (Q06187 whole entry C481S): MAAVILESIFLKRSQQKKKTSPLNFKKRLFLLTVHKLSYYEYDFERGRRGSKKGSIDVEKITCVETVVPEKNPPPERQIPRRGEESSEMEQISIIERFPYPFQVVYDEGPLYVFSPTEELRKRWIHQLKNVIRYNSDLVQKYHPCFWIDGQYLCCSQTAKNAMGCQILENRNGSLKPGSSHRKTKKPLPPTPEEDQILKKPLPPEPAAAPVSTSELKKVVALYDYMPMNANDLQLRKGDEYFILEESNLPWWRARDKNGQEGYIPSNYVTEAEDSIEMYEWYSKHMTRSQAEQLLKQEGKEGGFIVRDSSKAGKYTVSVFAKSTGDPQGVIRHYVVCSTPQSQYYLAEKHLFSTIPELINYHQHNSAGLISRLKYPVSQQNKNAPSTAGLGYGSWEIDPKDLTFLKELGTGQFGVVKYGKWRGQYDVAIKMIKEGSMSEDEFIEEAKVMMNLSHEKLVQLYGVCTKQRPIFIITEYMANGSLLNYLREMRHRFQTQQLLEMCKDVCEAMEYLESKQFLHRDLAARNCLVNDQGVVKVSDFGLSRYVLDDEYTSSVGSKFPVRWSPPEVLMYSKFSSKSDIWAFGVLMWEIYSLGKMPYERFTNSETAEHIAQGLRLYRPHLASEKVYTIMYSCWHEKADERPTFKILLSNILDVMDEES
Sequence of BTK^WT (Q06187 whole entry): as the sequence (Q06187 whole entry C481S) above, with S481C counted along it

`COc1ccc(F)cc1C(=O)NCc1ccc(-c2nn(C3CCC(C)(O)CC3)c3ncnc(N)c23)cc1` (single isomer, unassigned) [Example 95, N-[[4-[4-Amino-1-(4-hydroxy-4-methyl-cyclohexyl)pyrazolo[3,4-d]pyrimidin-3-yl]phenyl]methyl]-5-fluoro-2-methoxy-benzamide]: the IC50 in experiment [1] is 10 to 100 nM; in experiment [2] (setting [5]), ≤ 10 nM; in experiment [3], ≤ 10 nM; in experiment [4] it was 100 to 1000 nM.

Turning to `COc1ccccc1C(=O)NCc1ccc(-c2nn(C3CCC(C(=O)N(C)C)CC3)c3ncnc(N)c23)cc1` (single isomer, unassigned; isomer 1) [33-isomer 1], the IC50 in experiment [1] was 10 to 100 nM; in experiment [2] (setting [5]) it was ≤ 10 nM; in experiment [3], ≤ 10 nM; in experiment [4], 100 to 1000 nM.

In the case of `COc1ccc(F)cc1C(=O)NCc1ccc(-c2nn(C3CCCC3)c3ncnc(N)c23)cc1` [Example 4, N-[[4-(4-Amino-1-cyclopentyl-pyrazolo[3,4-d]pyrimidin-3-yl)phenyl]methyl]-5-fluoro-2-methoxy-benzamide], the IC50 was 10 to 100 nM in experiment [1] (Homo sapiens, OCI-Ly10, 72 h); ≤ 10 nM in experiment [2] (setting [5]); 0.8 nM in experiment [2] (Table 6, numeric values, read-out: BTK Binding IC50); ≤ 10 nM in experiment [3]; 100 to 1000 nM in experiment [4].

As for `COc1ccccc1C(=O)NCc1ccc(-c2nn(C3CCCO3)c3ncnc(N)c23)cc1` (stereo not drawn) [Example 5, N-[[4-(4-amino-1-tetrahydrofuran-2-yl-pyrazolo[3,4-d]pyrimidin-3-yl)phenyl]methyl]-2-methoxy-benzamide], the IC50 in experiment [1] (Homo sapiens, OCI-Ly10, 72 h) lay in the range of 100 to 1000 nM; in experiment [2] (setting [5]), 10 to 100 nM; in experiment [3], 10 to 100 nM; in experiment [4], 1000 to 10000 nM.

In the case of `CCOc1ccccc1C(=O)NCc1ccc(-c2nn(C3CCCC3)c3ncnc(N)c23)cc1` [Example 7, N-[[4-(4-amino-1-cyclopentyl-pyrazolo[3,4-d]pyrimidin-3-yl)phenyl]methyl]-2-ethoxy-benzamide], the IC50 in experiment [1] (Homo sapiens, OCI-Ly10, 72 h) was 100 to 1000 nM; in experiment [2] (setting [5]) it was ≤ 10 nM; in experiment [3], ≤ 10 nM; in experiment [4], 1000 to 10000 nM.

As for `CC(C)Oc1ccccc1C(=O)NCc1ccc(-c2nn(C3CCCC3)c3ncnc(N)c23)cc1` [Example 8, N-[[4-(4-amino-1-cyclopentyl-pyrazolo[3,4-d]pyrimidin-3-yl)phenyl]methyl]-2-isopropoxy-benzamide], the IC50 was 1000 to 10000 nM in experiment [1] (Homo sapiens, OCI-Ly10, 72 h); 10 to 100 nM in experiment [2] (setting [5]); ≤ 10 nM in experiment [3]; 1000 to 10000 nM in experiment [4].

In the case of `COc1ccc(Cl)cc1C(=O)NCc1ccc(-c2nn(C3CCCC3)c3ncnc(N)c23)cc1` [Example 11, N-[[4-(4-amino-1-cyclopentyl-pyrazolo[3,4-d]pyrimidin-3-yl)phenyl]methyl]-5-chloro-2-methoxy-benzamide], the IC50 in experiment [1] (Homo sapiens, OCI-Ly10, 72 h) is 10 to 100 nM; in experiment [2] (setting [5]), ≤ 10 nM; in experiment [3], ≤ 10 nM; in experiment [4] it was 1000 to 10000 nM.

For `COc1ccc(C)cc1C(=O)NCc1ccc(-c2nn(C3CCCC3)c3ncnc(N)c23)cc1` [Example 12, N-[[4-(4-amino-1-cyclopentyl-pyrazolo[3,4-d]pyrimidin-3-yl)phenyl]methyl]-2-methoxy-5-methyl-benzamide], the IC50 in experiment [1] (Homo sapiens, OCI-Ly10, 72 h) is 10 to 100 nM; in experiment [2] (setting [5]), ≤ 10 nM; in experiment [3], ≤ 10 nM; in experiment [4] it was 1000 to 10000 nM.

Take `COc1ccccc1C(=O)NCc1ccc(-c2nn(C3CCC(=O)C3)c3ncnc(N)c23)cc1` (stereo not drawn) [Example 21, N-[[4-[4-amino-1-(3-oxocyclopentyl)pyrazolo[3,4-d]pyrimidin-3-yl]phenyl]methyl]-2-methoxy-benzamide]: the IC50 was 100 to 1000 nM in experiment [1] (Homo sapiens, OCI-Ly10, 72 h); ≤ 10 nM in experiment [2] (setting [5]); ≤ 10 nM in experiment [3]; 1000 to 10000 nM in experiment [4].

In the case of `COc1ccccc1C(=O)NCc1ccc(-c2nn(C3CCC4(C3)OCCO4)c3ncnc(N)c23)cc1` (stereo not drawn) [Example 25, N-[[4-[4-amino-1-(1,4-dioxaspiro[4.4]nonan-8-yl)pyrazolo[3,4-d]pyrimidin-3-yl]phenyl]methyl]-2-methoxy-benzamide], the IC50 is 10 to 100 nM in experiment [1] (Homo sapiens, OCI-Ly10, 72 h); ≤ 10 nM in experiment [2] (setting [5]); ≤ 10 nM in experiment [3]; 100 to 1000 nM in experiment [4].

For the molecule `COc1ccccc1C(=O)NCc1ccc(-c2nn(C3CCC(=O)CC3)c3ncnc(N)c23)cc1` [Example 26, N-[[4-[4-amino-1-(4-oxocyclohexyl)pyrazolo[3,4-d]pyrimidin-3-yl]phenyl]methyl]-2-methoxy-benzamide], the IC50 in experiment [1] (Homo sapiens, OCI-Ly10, 72 h) is 100 to 1000 nM; in experiment [2] (setting [5]) it was 10 to 100 nM; in experiment [3], ≤ 10 nM; in experiment [4], 100 to 1000 nM.

In the case of `COc1ccncc1C(=O)NCc1ccc(-c2nn(C3CCCC3)c3ncnc(N)c23)cc1` [Example 27, N-[[4-(4-amino-1-cyclopentyl-pyrazolo[3,4-d]pyrimidin-3-yl)phenyl]methyl]-4-methoxy-pyridine-3-carboxamide], the IC50 in experiment [1] (Homo sapiens, OCI-Ly10, 72 h) is 100 to 1000 nM; in experiment [2] (setting [5]), 10 to 100 nM; in experiment [3] it was 10 to 100 nM; in experiment [4] it was 100 to 1000 nM.

Regarding `CNC1CCC(n2nc(-c3ccc(CNC(=O)c4ccccc4OC)cc3)c3c(N)ncnc32)CC1` (stereo not drawn) [Example 28, N-[[4-[4-amino-1-[4-(methylamino)cyclohexyl]pyrazolo[3,4-d]pyrimidin-3-yl]phenyl]methyl]-2-methoxy-benzamide], the IC50 in experiment [1] (Homo sapiens, OCI-Ly10, 72 h) is 100 to 1000 nM; in experiment [2] (setting [5]) it was 10 to 100 nM; in experiment [3], 10 to 100 nM; in experiment [4] it was 100 to 1000 nM.

For `COc1ccccc1C(=O)NCc1ccc(-c2nn(C3CCOCC3)c3ncnc(N)c23)cc1` [Example 29, N-[[4-(4-amino-1-tetrahydropyran-4-yl-pyrazolo[3,4-d]pyrimidin-3-yl)phenyl]methyl]-2-methoxy-benzamide], the IC50 in experiment [1] (Homo sapiens, OCI-Ly10, 72 h) is 100 to 1000 nM; in experiment [2] (setting [5]), ≤ 10 nM; in experiment [3], ≤ 10 nM; in experiment [4] it was 100 to 1000 nM.

On to `COc1ccccc1C(=O)NCc1ccc(-c2nn(C3CCCC(=O)C3)c3ncnc(N)c23)cc1` (stereo not drawn) [Example 31, N-[[4-[4-amino-1-(3-oxocyclohexyl)pyrazolo[3,4-d]pyrimidin-3-yl]phenyl]methyl]-2-methoxy-benzamide], for which the IC50 in experiment [1] (Homo sapiens, OCI-Ly10, 72 h) was 10 to 100 nM; in experiment [2] (setting [5]), ≤ 10 nM; in experiment [3], ≤ 10 nM; in experiment [4], 100 to 1000 nM.

In the case of `CCOC(=O)C1CCC(n2nc(-c3ccc(CNC(=O)c4ccccc4OC)cc3)c3c(N)ncnc32)CC1` (stereo not drawn) [Example 32, ethyl 4-[4-amino-3-[4-[[(2-methoxybenzoyl)amino]methyl]phenyl]pyrazolo[3,4-d]pyrimidin-1-yl]cyclohexanecarboxylate], the IC50 in experiment [1] (Homo sapiens, OCI-Ly10, 72 h) was 10 to 100 nM; in experiment [2] (setting [5]) it was ≤ 10 nM; in experiment [3] it was ≤ 10 nM; in experiment [4], 100 to 1000 nM.

In the case of `COc1ccccc1C(=O)NCc1ccc(-c2nn(C3CCCOC3)c3ncnc(N)c23)cc1` (stereo not drawn) [Example 34, N-[[4-(4-amino-1-tetrahydropyran-3-yl-pyrazolo[3,4-d]pyrimidin-3-yl)phenyl]methyl]-2-methoxy-benzamide], the IC50 in experiment [1] (Homo sapiens, OCI-Ly10, 72 h) was 10 to 100 nM; in experiment [2] (setting [5]), ≤ 10 nM; in experiment [3], ≤ 10 nM; in experiment [4], 1000 to 10000 nM.

The values above are taken from US10399989B2, “Pyrazolopyrimidine derivatives as BTK inhibitors for the treatment of cancer” (Loxo Oncology, Inc., priority 2016, dated 2019).
